Series [1] concerns the target T1, ATP-dependent translocase ABCB1 (Homo sapiens, UniProt P08183). The series is described as follows: Inhibition of Pgp in multidrug-resistant human 2780AD cells assessed as calcein accumulation at 0.25 ug/mL relative to control. Format: cell-based. Also on record: scale not given: the % may be the effect or the level left. As to conditions: a2780 adr.
The target of series [2] is T1, ATP-dependent translocase ABCB1. The series is described as follows: Inhibition of Pgp in multidrug-resistant human 2780AD cells assessed as calcein accumulation at 25 ug/mL relative to control. Format: cell-based. To be noted: a2780 adr. Also on record: scale not given: the % may be the effect or the level left.
Series [3] is described as follows: Growth inhibition of human WI38 cells. Type of series: cell-based. As to conditions: WI-38.
Series [4] deals with WI-38 VA13. The series is described as follows: Growth inhibition of human VA13 cells. Format: functional, cell-based.
Series [5] has as its system HepG2. The series is described as follows: Growth inhibition of human HepG2 cells. Type of series: functional, cell-based.
For series [6], the target named is T1, ATP-dependent translocase ABCB1. The series is described as follows: Inhibition of Pgp in multidrug-resistant human 2780AD cells assessed as calcein accumulation at 2.5 ug/mL relative to control. Type of series: cell-based. Also noted: scale not given: the % may be the effect or the level left. To be noted: a2780 adr.
The target is the same in series [7]. The series is described as follows: Inhibition of Pgp in multidrug-resistant human 2780AD cells assessed as vincristine accumulation at 0.1 ug/mL relative to control. Type of series: cell-based. Also noted: scale not given: the % may be the effect or the level left. To be noted: a2780 adr.
Series [8] has the same target. The series is described as follows: Inhibition of Pgp in multidrug-resistant human 2780AD cells assessed as vincristine accumulation at 1.0 ug/mL relative to control. Type of series: cell-based. Also noted: scale not given: the % may be the effect or the level left. As to conditions: a2780 adr.
Series [9] has the same target. The series is described as follows: Inhibition of Pgp in multidrug-resistant human 2780AD cells assessed as vincristine accumulation at 10 ug/mL relative to control. Format: cell-based. Also on record: scale not given: the % may be the effect or the level left. As to conditions: a2780 adr.
Series [10] shares this target. The series is described as follows: Inhibition of Pgp in multidrug-resistant human 2780AD cells assessed as vincristine accumulation at 0.1 ug/mL relative to verapamil. Type of series: cell-based. Also on record: scale not given: the % may be the effect or the level left. As to conditions: a2780 adr.
For series [11] the target is unchanged. The series is described as follows: Inhibition of Pgp in multidrug-resistant human 2780AD cells assessed as vincristine accumulation at 1.0 ug/mL relative to verapamil. Also noted: scale not given: the % may be the effect or the level left. Type of series: cell-based. As to conditions: a2780 adr.
Series [12] has the same target. The series is described as follows: Inhibition of Pgp in multidrug-resistant human 2780AD cells assessed as vincristine accumulation at 10 ug/mL relative to verapamil. Format: cell-based. Also noted: scale not given: the % may be the effect or the level left. To be noted: a2780 adr.

pIC50: −log10 of the molar value. Some results are limits rather than exact numbers.

T1 sequence (P08183 whole entry): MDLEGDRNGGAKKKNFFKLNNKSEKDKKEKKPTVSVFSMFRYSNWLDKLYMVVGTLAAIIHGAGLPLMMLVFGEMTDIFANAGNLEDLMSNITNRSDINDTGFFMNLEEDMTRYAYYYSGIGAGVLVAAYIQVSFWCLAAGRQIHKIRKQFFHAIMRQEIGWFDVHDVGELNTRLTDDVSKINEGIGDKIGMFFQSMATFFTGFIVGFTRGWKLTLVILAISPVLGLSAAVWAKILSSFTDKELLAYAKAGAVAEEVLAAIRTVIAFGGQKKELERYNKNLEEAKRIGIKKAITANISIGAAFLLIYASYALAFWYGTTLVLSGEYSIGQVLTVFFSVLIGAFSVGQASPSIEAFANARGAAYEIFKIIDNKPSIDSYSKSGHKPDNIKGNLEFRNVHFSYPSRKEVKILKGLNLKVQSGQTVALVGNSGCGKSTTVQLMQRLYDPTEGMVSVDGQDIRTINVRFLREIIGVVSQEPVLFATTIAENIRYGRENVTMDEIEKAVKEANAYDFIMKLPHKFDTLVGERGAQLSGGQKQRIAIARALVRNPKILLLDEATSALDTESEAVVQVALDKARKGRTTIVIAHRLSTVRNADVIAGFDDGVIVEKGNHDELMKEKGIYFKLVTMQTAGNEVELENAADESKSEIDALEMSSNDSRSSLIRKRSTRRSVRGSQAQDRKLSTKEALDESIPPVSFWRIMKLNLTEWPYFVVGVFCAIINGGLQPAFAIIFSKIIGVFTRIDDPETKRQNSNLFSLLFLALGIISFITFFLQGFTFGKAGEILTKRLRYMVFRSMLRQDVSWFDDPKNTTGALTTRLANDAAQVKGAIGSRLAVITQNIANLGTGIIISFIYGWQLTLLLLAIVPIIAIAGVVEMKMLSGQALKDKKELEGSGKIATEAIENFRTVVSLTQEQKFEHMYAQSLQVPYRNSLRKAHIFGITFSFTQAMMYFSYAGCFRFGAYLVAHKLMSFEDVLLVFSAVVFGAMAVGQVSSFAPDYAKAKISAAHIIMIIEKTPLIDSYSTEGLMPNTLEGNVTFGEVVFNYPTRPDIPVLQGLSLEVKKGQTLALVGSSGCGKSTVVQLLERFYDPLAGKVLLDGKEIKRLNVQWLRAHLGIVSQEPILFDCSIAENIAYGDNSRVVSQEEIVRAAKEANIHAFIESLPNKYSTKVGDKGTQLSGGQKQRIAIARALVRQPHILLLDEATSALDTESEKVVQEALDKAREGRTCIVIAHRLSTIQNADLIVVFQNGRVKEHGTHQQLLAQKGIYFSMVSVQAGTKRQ

As to `C=C1[C@@H](OC(C)=O)C[C@H](O)[C@@]2(C)C[C@H](OC(C)=O)C3=C(C)C[C@H](OC(=O)C(C)C(C)O)[C@@H]([C@@H](OC(C)=O)[C@H]12)C3(C)C` (stereo partly drawn), the Activity in series [1] is recorded as 87%; in series [2] it was 107%; in [6] it was 104%. The negative logarithm of the IC50 (pIC50) in series [3] is 3.85; in series [4], less than 3.76; in series [5] it was 3.82.
Take `C=C1[C@@H](OC(C)=O)CC[C@@]2(C)C[C@H](OC(C)=O)C3=C(C)C[C@H](OC(=O)C(C)CC)[C@@H]([C@@H](OC(C)=O)[C@H]12)C3(C)C` (stereo partly drawn): the Activity in series [1] was 100%; in series [2], 119%; in [6], 86%. Moreover, the pIC50 in series [3] was less than 3.74; in series [4] it was 4.21; in [5] it was 4.38.
Take `C=C1[C@@H](OC(C)=O)CC[C@@]2(C)C[C@H](OC(C)=O)C3=C(C)C[C@H](OC(C)=O)[C@@H]([C@@H](OC(C)=O)[C@H]12)C3(C)C` [TAXUYUNNANINE C]: the results for the Activity in series [1], in series [2] and in series [6] were 130%, 127% and 141%, respectively. The values for the pIC50 in [3], in series [4] and in series [5] were 3.89, 4.27 and 4.73, respectively.
On to `C=C1[C@@H](OC(C)=O)CC[C@@]2(C)C[C@H](OC(=O)/C=C/c3ccccc3)C3=C(C)C[C@H](OC(C)=O)[C@@H]([C@@H](OC(C)=O)[C@H]12)C3(C)C`, for which the Activity is recorded as 92% in series [1]; 126% in series [2]; 132% in series [7]; 123% in [6]; 209% in [8]; 451% in [9]. Further, the Activity in series [10] stood at 130%; in [11], 118%; in series [12] it was 81%. In addition, the pIC50 is less than 3.77 in series [3], less than 3.77 in [4] and 3.97 in series [5].
On to `C=C1[C@@H](O)CC[C@@]2(C)C[C@H](OC(C)=O)C3=C(C)C[C@H](OC(C)=O)[C@@H]([C@@H](OC(C)=O)[C@H]12)C3(C)C`, for which the Activity is 118% in series [1], 141% in [2] and 118% in series [6]. The pIC50 in series [3] was 3.83; in series [4], 3.98; in series [5] it was 3.74.
Turning to `C=C1[C@@H](OC(C)=O)CC[C@@]2(C)C[C@H](OC(C)=O)C3=C(C)C[C@H](OC(=O)CC)[C@@H]([C@@H](OC(C)=O)[C@H]12)C3(C)C`, the Activity is reported as 104% in [1], 119% in series [2] and 98% in series [6]. Moreover, the pIC50 in series [3] is less than 3.71; in [4] it was 4.03; in series [5] it was 4.06.
On to `C=C1[C@@H](OC(C)=O)C[C@H](O)[C@@]2(C)C[C@H](OC(C)=O)C3=C(C)C[C@H](OC(=O)C(C)CC)[C@@H]([C@@H](OC(C)=O)[C@H]12)C3(C)C` (stereo partly drawn), for which the Activity in [1] is 94%; in series [2], 110%; in series [6], 98%. In addition, the pIC50 is 4.09 in series [3], 4.10 in series [4] and 4.12 in series [5].
Consider `C=C1[C@@H](OC(C)=O)C[C@H](OC(=O)/C=C/c2ccccc2)[C@@]2(C)C[C@H](OC(C)=O)C3=C(C)C[C@H](OC(=O)C(C)C(C)O)[C@@H]([C@@H](OC(C)=O)[C@H]12)C3(C)C` (stereo partly drawn), for which the Activity is listed as 97% in [1], 130% in [2] and 102% in [6]. The pIC50 in [3] was 4.20; in series [4], 4.30; in series [5] it was 4.09.
As for `C=C1[C@@H](OC(C)=O)CC[C@@]2(C)C[C@H](OC(C)=O)C3=C(C)C[C@H](OC(=O)CCCC)[C@@H]([C@@H](OC(C)=O)[C@H]12)C3(C)C`, the results for the Activity in [1], in series [2] and in [6] were 94%, 111% and 88%, respectively. The results for the pIC50 in series [3], in series [4] and in series [5] were less than 3.74, 4.25 and 4.78, respectively.
For the compound `C=C1[C@@H](OC(C)=O)CC[C@@]2(C)C[C@H](O)C3=C(C)C[C@H](OC(C)=O)[C@@H]([C@@H](OC(C)=O)[C@H]12)C3(C)C`, the Activity in series [1] is 103%; in series [2], 111%; in series [7], 92%; in series [6] it was 98%; in series [8], 119%; in [9] it was 229%. Further, the Activity in series [10] is 84%; in series [11], 64%; in series [12], 51%. Moreover, the values for the pIC50 in [3], in [4] and in series [5] were 3.98, 4.90 and 3.97, respectively.
Take `C=C1[C@@H](OC(C)=O)CC[C@@]2(C)C[C@H](OC(C)=O)C3=C(C)C[C@H](OC(=O)CCC)[C@@H]([C@@H](OC(C)=O)[C@H]12)C3(C)C`: the Activity in series [1] is reported as 97%; in series [2] it was 114%; in series [6] it was 98%. Also, the negative-log IC50 (pIC50) in [3] is 4.13; in series [4], 4.76; in [5], 4.73.
As for `C=C1[C@@H](OC(C)=O)CC[C@@]2(C)C[C@H](OC(C)=O)C3=C(C)C[C@H](OC(C)=O)[C@@H]([C@@H](OC(=O)c4ccccc4)[C@H]12)C3(C)C`, the Activity is 98% in series [1], 125% in series [2] and 96% in series [6]. Moreover, the negative-log IC50 (pIC50) in [3] is 3.90; in series [4], 3.76; in series [5] it was 4.28.
As to `C=C1[C@@H](OC(C)=O)CC[C@@]2(C)C[C@H](OC(=O)/C=C/c3ccccc3)C3=C(C)C[C@H](OC(=O)/C=C/c4ccccc4)[C@@H]([C@@H](OC(C)=O)[C@H]12)C3(C)C`, the Activity in series [1] was 83%; in [2], 80%; in series [7] it was 91%; in series [6], 80%; in series [8] it was 92%; in [9], 122%. Moreover, the Activity in [10] is given as 83%; in series [11], 49%; in series [12] it was 27%. Moreover, the pIC50 in series [3], in series [4] and in series [5] was less than 3.83 throughout.
Consider `C=C1[C@@H](OC(C)=O)CC[C@@]2(C)[C@@H](OC(=O)/C=C/c3ccccc3)[C@H](OC(C)=O)C3=C(C)C[C@H](OC(C)=O)[C@@H]([C@@H](OC(C)=O)[C@H]12)C3(C)C`, for which the Activity is recorded as 102% in series [1], 125% in [2] and 103% in series [6]. In addition, the pIC50 in series [3] was 3.82; in series [4], less than 3.81; in series [5] it was less than 3.81.
As for `C=C1[C@@H](OC(C)=O)CC[C@@]2(C)C[C@H](OC(C)=O)C3=C(C)C[C@H](OC(=O)c4ccccc4)[C@@H]([C@@H](OC(C)=O)[C@H]12)C3(C)C`, the values for the Activity in series [1], in series [2] and in series [6] were 90%, 133% and 107%, respectively. Besides, the pIC50 in series [3] was less than 3.75; in series [4] it was less than 3.75; in [5] it was 3.84.
`C=C1[C@@H](OC(=O)/C=C/c2ccccc2)CC[C@@]2(C)C[C@H](OC(C)=O)C3=C(C)C[C@H](OC(C)=O)[C@@H]([C@@H](OC(C)=O)[C@H]12)C3(C)C`: the Activity in series [1] is reported as 102%; in series [2], 121%; in series [6] it was 95%. Moreover, the pIC50 was 4.00 in series [3], 3.90 in [4] and 5.00 in [5].
Take `C=C1[C@@H](OC(C)=O)CC[C@@]2(C)C[C@H](OC(C)=O)C3=C(C)C[C@H](OC(=O)C(C)C)[C@@H]([C@@H](OC(C)=O)[C@H]12)C3(C)C`: the values for the Activity in series [1], in series [2] and in series [6] were 133%, 148% and 139%, respectively. Moreover, the pIC50 in series [3] is less than 3.73; in series [4] it was 4.04; in [5] it was 4.55.
Take `C=C1[C@@H](OC(C)=O)C[C@H](OC(=O)/C=C/c2ccccc2)[C@@]2(C)C[C@H](OC(C)=O)C3=C(C)C[C@H](OC(=O)C(C)CC)[C@@H]([C@@H](OC(C)=O)[C@H]12)C3(C)C` (stereo partly drawn): the Activity in series [1] is reported as 96%; in series [2], 102%; in [6], 98%. In addition, the negative logarithm of the IC50 (pIC50) in [3], in series [4] and in series [5] was less than 3.84 throughout.
As for `C=C1[C@@H](OC(C)=O)CC[C@@]2(C)C[C@H](OC(C)=O)C3=C(C)C[C@H](OC(=O)C(C)C(C)O)[C@@H]([C@@H](OC(C)=O)[C@H]12)C3(C)C` (stereo partly drawn) [YUNNANXANE], the Activity in series [1] is 81%; in series [2], 168%; in series [6], 94%. Besides, the figures for the pIC50 in [3], in [4] and in series [5] were 4.10, 5.03 and 4.73, respectively.
Regarding `C=C1[C@@H](OC(C)=O)CC[C@@]2(C)C[C@H](OC(C)=O)C3=C(C)CC[C@@H]([C@@H](OC(C)=O)[C@H]12)C3(C)C`, the Activity is 89% in [1], 91% in series [2] and 105% in series [6]. The values for the pIC50 in series [3], in series [4] and in [5] were 5.05, 4.91 and 4.99, respectively.

The pIC50 is −log10 of the IC50, conventionally taken in molar units.

Values taken from ChEMBL document CHEMBL1139973, “Synthesis and structure-activity relationships of taxuyunnanine C derivatives as multidrug resistance modulator in MDR cancer cells” (Bioorg Med Chem Lett, 2007).
